Results from article PMC6680510, “Benzotriazine Di-Oxide Prodrugs for Exploiting Hypoxia and Low Extracellular pH in Tumors” (Molecules, 2019).
Like-named read-outs stand apart in the source and are kept apart here.

Experiments:
FaDu cells = test: IC50 assay (inhibition of proliferation, 4 h exposure, SRB); assay type: cell-based; conditions: for IC50: Homo sapiens, 4 h
[1] = Solubility in AlphaMEM + 5% FBS, pH 7.4; conditions: culture medium (AlphaMEM + 5% FBS), pH 7.4, plasma or biological fluid
SiHa cells = test: IC50 assay (inhibition of proliferation, 4 h exposure, SRB); conditions: SiHa; for IC50: Homo sapiens, 4 h
Procedure: Cells were seeded in 96-well plates (SiHa or FaDu 1500 cells/well, UT-SCC-74B 800 cells/well) in 100 μL. After incubation for 2 h, the drugs were added in 50 μL of the same titrated medium at 3× the final concentration to duplicate the wells. After a further 4 h the plates were checked for drug precipitation using a phase contrast microscope, then drugs were removed by aspirating and washing with the standard (pH 7.4) medium, then aspirating again and adding 150 μL of the medium. Cultures were then grown for 5 days before staining with sulphorhodamine B and measuring absorbance, with the estimation of IC50 values using 4-parameter logistic regression, as previously carried out.
The medium and plasticware was equilibrated in the chamber for 3 days prior to use. In the anoxia experiments, FaDu cells were plated in poly-L-lysine coated plates (Corning Cat # 356461) to improve attachment.
Cells were subsequently grown under standard cell culture conditions (oxia, pHe 7.4) for 5 days before staining with sulforhodamine B (SRB). […] (B) SN30000 (2). (C) BTO acid 4a. Values are means and errors are ranges for duplicate cultures in a single experiment. Fitted curves are 4-parameter logistic regressions. PCR = pH cytotoxicity ratio. ACR = anoxia cytotoxicity ratio. TMR = tumor microenvironment ratio.

[2] = pHe 6.5, 4 h, anoxic, read-out: Anoxic IC50
[3] = pHe 6.5, 4 h, oxic, read-out: Oxic IC50
[4] = pHe 7.4, 4 h, anoxic, read-out: Anoxic IC50
[5] = pHe 7.4, 4 h, oxic, read-out: Oxic IC50
[6] = read-out: Anoxic IC50, SiHa, pHe 6.5, 4 h, anoxic
[7] = read-out: Anoxic IC50, SiHa, pHe 7.4, 4 h, anoxic
[8] = read-out: Oxic IC50, SiHa, pHe 6.5, 4 h, oxic
[9] = read-out: Oxic IC50, SiHa, pHe 7.4, 4 h, oxic

| solubility ([1]; kinetic from dmso stock) | melting point | SMILES | TMR (oxic IC50 pHe 7.4/anoxic IC50 pHe 6.5) (FaDu cells) | IC50 (FaDu cells; [2]) | IC50 (FaDu cells; [3]) | IC50 (FaDu cells; [4]) | IC50 (FaDu cells; [5]) | PCR Anoxic (IC50 at pHe 7.4/IC50 at pHe 6.5) (FaDu cells; anoxic) | PCR oxic (IC50 at pHe 7.4/IC50 at pHe 6.5) (FaDu cells; oxic) | ACR (oxic IC50/anoxic IC50) (FaDu cells; pHe 6.5) | ACR (oxic IC50/anoxic IC50) (FaDu cells; pHe 7.4) | IC50 (SiHa cells; [6]) | IC50 (SiHa cells; [7]) | IC50 (SiHa cells; [8]) | IC50 (SiHa cells; [9]) | TMR (overall TME ratio = oxic IC50 pHe 7.4/anoxic IC50 pHe 6.5) (SiHa cells) | PCR Anoxic (IC50 at pHe 7.4/IC50 at pHe 6.5) (SiHa cells) | PCR oxic (IC50 at pHe 7.4/IC50 at pHe 6.5) (SiHa cells) | ACR (anoxic cytotoxicity ratio = oxic IC50/anoxic IC50) (SiHa cells; pHe 6.5) | ACR (anoxic cytotoxicity ratio = oxic IC50/anoxic IC50) (SiHa cells; pHe 7.4) | other results |
| --- | --- | --- | --- | --- | --- | --- | --- | --- | --- | --- | --- | --- | --- | --- | --- | --- | --- | --- | --- | --- | --- |
| – | – | CCOC(=O)CNc1n[n+]([O-])c2ccccc2[n+]1[O-] [Compound 8b, Ethyl [(1,4-Dioxido-1,2,4-benzotriazin-3-yl)amino]acetate] | 11.2 ± 2.9 | 8.55 ± 1.92 µM | 76.1 ± 17.9 µM | 5.25 ± 1.18 µM | 102 ± 9 µM | 0.61 ± 0.02 | 1.34 ± 0.33 | 8.89 ± 2.89 | 19.3 ± 4.7 | 2.5 ± 0.87 µM | 1.2 ± 0.35 µM | 21.6 ± 5.7 µM | 35.3 ± 3.1 µM | 14.1 ± 5.1 | 0.48 ± 0.22 | 1.63 ± 0.45 | 8.6 ± 3.8 | 29.4 ± 8.9 | solubility ([1]; thermodynamic from solid): 8600 µM |
| 1400 µM | – | CCOC(=O)CCCNc1n[n+]([O-])c2ccccc2[n+]1[O-] [Compound 11b, 3-((4-Ethoxy-4-oxobutyl)amino)benzo[e][1,2,4]triazine 1,4-Dioxide] | 10.1 ± 3.0 | 36.3 ± 4.8 µM | 274 ± 210 µM | 29 ± 2 µM | 368 ± 98 µM | 0.80 ± 0.12 | 1.34 ± 1.09 | 7.55 ± 5.87 | 12.7 ± 3.5 | 4.36 ± 0.56 µM | 3.55 ± 0.7 µM | 13.2 ± 0.9 µM | 14.5 ± 0.6 µM | 3.32 ± 0.45 | 0.81 ± 0.19 | 1.10 ± 0.09 | 3.04 ±0.44 | 4.08 ±0.82 | – |
| > 960 µM | 173 to 175 °C (dec.) | Cc1ccc2c(c1)[n+]([O-])c(CCC(=O)O)n[n+]2[O-] [Compound 6a, 3-(2-Carboxyethyl)-6-methylbenzo[e][1,2,4]triazine 1,4-Dioxide] | >5 | 205 ± 25 µM | > 1000 µM | > 1000 µM | > 1000 µM | >5 | – | >5 | – | 364 ± 47 µM | 1180 ± 190 µM | > 1000 µM | > 1000 µM | >2.7 | 3.24 ± 0.67 | – | >2.7 | – | – |
| > 950 µM | 165 to 167 °C | COC(=O)CCc1n[n+]([O-])c2cc(C)ccc2[n+]1[O-] [Compound 5b, 3-(3-Methoxy-3-oxopropyl)-7-methylbenzo[e][1,2,4]triazine 1,4-Dioxide] | – | – | – | – | – | – | – | – | – | – | – | – | – | – | – | – | – | – | – |
| 160 µM | 191 to 192 °C | CCOC(=O)CCCNc1n[n+]([O-])c2cc(C)ccc2[n+]1[O-] [Compound 12b, 3-((4-Ethoxy-4-oxobutyl)amino)-7-methylbenzo[e][1,2,4]triazine 1,4-Dioxide] | – | – | – | – | – | – | – | – | – | – | – | – | – | – | – | – | – | – | – |
